In BindingDB's records for doi:10.1016/j.bioorg.2015.08.001 (Universiti Teknologi Mara (Uitm), 2015):

What follows are compounds tested against Carbonic anhydrase 2 (Bos taurus, UniProt P00921) (assay: Carbonic Anhydrase (CA) II Inhibition Assay). Conditions: pH 7.2.
Carbonic anhydrase 2, sequence (P00921 whole entry): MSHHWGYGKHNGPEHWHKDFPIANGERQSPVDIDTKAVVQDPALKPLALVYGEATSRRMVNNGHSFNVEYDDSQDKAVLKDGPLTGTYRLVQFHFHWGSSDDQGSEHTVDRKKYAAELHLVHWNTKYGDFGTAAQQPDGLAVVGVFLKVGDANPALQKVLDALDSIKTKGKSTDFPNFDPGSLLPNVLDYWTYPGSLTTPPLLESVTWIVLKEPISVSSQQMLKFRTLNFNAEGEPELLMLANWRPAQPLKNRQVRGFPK
Experimental: This was assay performed using buffer containing Tris and HEPES at the pH of 7.2-7.9 and a total concentration of 20 mM. 96-well plates were filled with 140 µL of Tris-HEPES solution, 20 µL of bovine erythrocyte carbonic anhydrase II solution (0.1-0.2 mg/2000 mL), and 20 µL of 0.7 mM para-nitrophenyl acetate (diluted in ethanol). Test compounds were incubated at 25-28 °C for 15 min prior to addition of para-nitrophenyl acetate, which starts the reaction. The reaction was allowed to take place for 30 min at 25-28 °C. All compounds tested in triplicate at different concentration. Amount of product that forms during the reaction monitored at 400 nm after 30 min.
S=C(Nc1ccc(C(c2c[nH]c3ccccc23)c2c[nH]c3ccccc23)cc1)Nc1cccc(Br)c1 showed an IC50 of 131 µM.
Cc1cccc2c(C(c3ccc(NC(=S)Nc4ccc([N+](=O)[O-])cc4)cc3)c3c[nH]c4c(C)cccc34)c[nH]c12 [1-(4-(Bis(7-methyl-1H-indol-3-yl)methyl)phenyl)-3-(4-nitrophenyl)thiourea (3u)] was tested, and the IC50 was 44.1 µM.
O=[N+]([O-])c1ccc(NC(=S)Nc2cccc(C(c3c[nH]c4ccccc34)c3c[nH]c4ccccc34)c2)cc1 [1-(4-Nitrophenyl)-3-(3-(di(1H-indol-3-yl)methyl)phenyl)thiourea (4d)] gave an IC50 of 32.9 µM.
Work on CCOC(=O)NC(=S)Nc1ccc(C(c2c[nH]c3ccc(Br)cc23)c2c[nH]c3ccc(Br)cc23)cc1 [Name not given] yielded an IC50 of 70.4 µM.
Work on CCOC(=O)NC(=S)Nc1ccc(C(c2c[nH]c3ccc(Cl)cc23)c2c[nH]c3ccc(Cl)cc23)cc1 [Name not given] yielded an IC50 of 137 µM.
O=[N+]([O-])c1ccc(NC(=S)Nc2ccc(C(c3c[nH]c4ccc(Br)cc34)c3c[nH]c4ccc(Br)cc34)cc2)cc1 [Name not given] was tested, and the IC50 was 32.3 µM.
With O=[N+]([O-])c1ccc(NC(=S)Nc2ccc(C(c3c[nH]c4ccc(Cl)cc34)c3c[nH]c4ccc(Cl)cc34)cc2)cc1 [Name not given] the IC50 was 39.7 µM.
O=[N+]([O-])c1ccc(NC(=S)Nc2ccc(C(c3c[nH]c4ccccc34)c3c[nH]c4ccccc34)cc2)cc1 [Name not given] showed an IC50 of 45.9 µM.
With S=C(Nc1ccc(C(c2c[nH]c3ccc(Br)cc23)c2c[nH]c3ccc(Br)cc23)cc1)Nc1cc(Cl)ccc1Cl [Name not given] the IC50 was 33 µM.
S=C(Nc1ccc(C(c2c[nH]c3ccc(Br)cc23)c2c[nH]c3ccc(Br)cc23)cc1)Nc1cccc(Br)c1 [Name not given] was tested, and the IC50 was 30.1 µM.
S=C(Nc1ccc(C(c2c[nH]c3ccc(Br)cc23)c2c[nH]c3ccc(Br)cc23)cc1)Nc1cccc(Cl)c1 [Name not given] gave an IC50 of 42.9 µM.
With S=C(Nc1ccc(C(c2c[nH]c3ccc(Cl)cc23)c2c[nH]c3ccc(Cl)cc23)cc1)Nc1cc(Cl)ccc1Cl [Name not given] the IC50 was 139 µM.
For S=C(Nc1ccc(C(c2c[nH]c3ccc(Cl)cc23)c2c[nH]c3ccc(Cl)cc23)cc1)Nc1cccc(Cl)c1 [Name not given], the IC50 was 54.4 µM.
With S=C(Nc1ccc(C(c2c[nH]c3ccccc23)c2c[nH]c3ccccc23)cc1)Nc1cc(Cl)ccc1Cl [Name not given] the IC50 was 68.3 µM.
For S=C(Nc1ccc(C(c2c[nH]c3ccccc23)c2c[nH]c3ccccc23)cc1)Nc1cccc(Cl)c1 [Name not given], the IC50 was 112 µM.
